Experimental data as given in patent US20130203649A1, “INHIBITORS OF TLR SIGNALING BY TARGETING TIR DOMAIN INTERFACES” (UNIVERSITY OF MARYLAND, BALTIMORE, priority 2012, published 2013).
No end group written: not given here.

Assays:
C57BL/6J mice = experiment: Survival after lethal LPS challenge in C57BL/6J mice; type: in vivo, mouse; details: LPS 17.5 μg/g i.p.; peptide 10 nmol/g i.p. 1 h before
Protocol: FIG. 10. […] (A-E) C57BL/6J mice were injected i.p. with purified Escherichia coli K235 LPS (1 μg/g) or PBS. Peptides (10 nmol/g of animal weight) were injected i.p. (A, B, D, E) or i.v. (C) 1 h before (A, B, and C) or 30 min after (D, E) i.p. injection of LPS. Data in panels A and D show plasma IL-6 and TNF-α levels measured 2 h after LPS challenge. Peptide TM8/9 was used as a non-inhibitory control peptide. Data represent the means±s.e.m. for 6-12 blood samples obtained in at least three independent experiments. *p<0.01. (F, G) C57BL/6J mice were challenged i.p. with a lethal LPS dose (17.5 μg/g). Peptides (10 nmol/g) were injected i.p. 1 h before LPS challenge. […] The statistical significance of changes in mortality and survival time was determined by the Mantel Cox log-rank test using GraphPad Prism software (Version 5.04). *p<0.01.
Eight-week-old C57BL/6J mice were injected with 1 or 17.5 μg/g animal weight of E. coli K235 LPS i.p. Peptides reconstituted in PBS were administered i.p. or i.v. Control groups received equivalent volume of solvent (PBS). The blood samples were collected 1, 2, 4, and 8 h, or 2, 8, and 24 h after LPS challenge. The plasma samples were obtained and kept frozen until TNF-α and IL-6 were measured by ELISA. Survival of animals was monitored every 6-16 h after LPS challenge. All animal experiments were carried out with institutional approval.
We next studied whether inhibitory peptides protect mice from a lethal LPS challenge. TR6, a previously described inhibitory peptide derived from the third helical region of TRAP (30), was also included in this study as an additional control. C57BL/6J mice were injected i.p. with 17.5 μg/g LPS. This dose induced 100% mortality in the control group (FIG. 10F). […] The peptide-treated survivors appeared active and healthy at the time the experiments were terminated, 7 d after injection of LPS.

TLR4/TRAM = molecular target: T1, TLR4/TRAM (Mus musculus, UniProt Q9QUK6); experiment: TLR4/TRAM coimmunoprecipitation in transfected HEK293T cells; type: cell-based; details: 20 μM peptide, 1 h
T1 construct: TLR4-Cer expression vector was described earlier (1); expressed in transfected cells; host or cells: HEK293T
T1 sequence (Q9QUK6 26-835): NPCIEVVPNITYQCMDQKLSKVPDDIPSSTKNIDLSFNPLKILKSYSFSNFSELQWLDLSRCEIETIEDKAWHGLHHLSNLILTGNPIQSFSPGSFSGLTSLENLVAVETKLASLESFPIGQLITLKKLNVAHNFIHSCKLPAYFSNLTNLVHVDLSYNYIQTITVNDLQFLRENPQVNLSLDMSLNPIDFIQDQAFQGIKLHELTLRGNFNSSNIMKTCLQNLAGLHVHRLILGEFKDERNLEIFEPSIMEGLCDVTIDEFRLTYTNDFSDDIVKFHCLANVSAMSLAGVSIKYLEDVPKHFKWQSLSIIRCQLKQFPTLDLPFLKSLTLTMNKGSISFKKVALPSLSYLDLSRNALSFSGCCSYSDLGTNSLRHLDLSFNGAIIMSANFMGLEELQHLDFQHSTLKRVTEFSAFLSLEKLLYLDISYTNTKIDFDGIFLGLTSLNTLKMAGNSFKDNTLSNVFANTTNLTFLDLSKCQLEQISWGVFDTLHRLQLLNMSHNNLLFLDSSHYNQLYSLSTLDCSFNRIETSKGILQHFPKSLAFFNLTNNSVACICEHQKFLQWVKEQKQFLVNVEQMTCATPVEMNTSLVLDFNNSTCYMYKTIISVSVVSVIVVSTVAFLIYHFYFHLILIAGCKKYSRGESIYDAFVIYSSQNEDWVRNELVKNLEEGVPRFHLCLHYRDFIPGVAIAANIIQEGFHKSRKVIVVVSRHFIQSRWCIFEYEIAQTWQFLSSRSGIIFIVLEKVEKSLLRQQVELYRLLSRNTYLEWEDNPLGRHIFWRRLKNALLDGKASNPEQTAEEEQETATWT
Protocol: FIG. 9. TM4, TM6, and TR6 block adapter recruitment to TLR4. (A) A total of 6×10^5 HEK293T cells was transfected with 1 μg pcDNA3.1-mTLR4-Cer and pEF-BOS-mTRAM-HA. Twenty-four hours posttransfection, the cells were treated with 20 μM of each peptide for 1 h. Cell lysates were immunoprecipitated with anti-GFP Ab and blotted with anti-HA-HRP. (B) A total of 2×10^6 mouse peritoneal macrophages was pretreated with 20 μM of each peptide for 30 min prior to stimulation with 100 ng/ml LPS. Cell extracts were obtained 30 min after LPS treatment, immunoprecipitated with goat anti-TLR4 Ab, and blotted with rabbit anti-MyD88 or anti-TLR4 Ab. Data are representative of three independent experiments.
HEK293T cells were transfected with indicated plasmids using Superfect Transfection Reagent (Qiagen). […] Protein was quantified using Bio-Rad protein quantification kit. Equal amount of protein was loaded and analyzed by 10% SDS-PAGE and immunoblotting. The cell extracts containing equal amount of protein were incubated with 1 μg Ab for 2 h, followed by 4-h incubation with 25 μl protein G agarose beads (Roche); the beads were then washed four times with lysis buffer, boiled in […] sample loading buffer, and analyzed by immunoblotting. […]

TLR4 = experiment: LPS-induced STAT1-Y701 phosphorylation in macrophages (immunoblotting); type: cell-based, mouse; details: 2 h after LPS

Row | Sequence | Survival after lethal LPS challenge (C57BL/6J mice) | TLR4/TRAM coimmunoprecipitation (TLR4/TRAM) | LPS-induced STAT1-Y701 phosphorylation (TLR4)
1 | RQIKIWFQNRRMKWKKPGFLRDPWCKYQML [TR6] | improved animal survival comparably to TM6 | inhibited TLR4/TRAM association, although less efficiently than TM6 | 
2 | RQIKIWFQNRRMKWKKCLQDAIDHSGFT [TF5] |  |  | inhibit
